Reference: patent US12459974B2, “Bicyclic peptide ligands specific for Nectin-4” (priority 2018, dated 2025)
*1 amine or outer side, *2 acyl side, *3 side chain or, on linkers, in order; H or OH if unused. Where a SMILES comes first, the peptide text is derived from it. Bridges are numbered along the chain shown (N, C = ends). Roman numbers before positions name the chains, in order. [ ]: non-standard residue; d: D form. The star is where a group is joined. ξ: configuration not given here. TATA = O=C(CC[*:1])N1CN(C(=O)CC[*:2])CN(C(=O)CC[*:3])C1; Dolaproine = CO[C@@H]([C@@H]1CCCN1)[C@@H](C)C(=O)O; X1 = CC[C@H](C)C(C(CC(=O)[*:2])OC)N(C)[*:1]; 1Nal = N[C@@H](Cc1cccc2ccccc12)C(=O)O; X3 = O=C(CCCC(=O)[*:2])NCCC(=O)[*:1]; PABC = O=C(OCc1ccc(N[*:1])cc1)[*:2]; Hyp = O=C(O)[C@@H]1C[C@@H](O)CN1; hArg = N=C(N)NCCCC[C@H](N)C(=O)O; Cit = NC(=O)NCCC[C@H](N)C(=O)O; X2 = CC(N*)[C@@H](O)c1ccccc1; ξNMeV = CNC(C(=O)O)C(C)C; ξV = CC(C)C(N)C(=O)O; Sar = CNCC(=O)O

Assays:
HCT116 xenograft = test: Example 9.2: in vivo efficacy in HCT116 xenograft in Balb/c nude mice; set-up: species or system Mus Musculus; details: for Tumor volume trace over time / TGI / Tumor volume / T/C: iv; for Tumor volume trace over time / Tumor volume: mean ± SEM; for TGI / Tumor volume / T/C: day 14; for T/C: treated/control group average tumor volume
HT-1376 xenograft = test: Example 9.3: in vivo efficacy in HT-1376 xenograft in CB17-SCID mice; set-up: species or system Mus Musculus; details: for TGI / Tumor volume (TV) / Tumor volume / T/C: day 14; for Tumor volume trace over time: mean; for Tumor volume: mean ± SEM; for T/C: treated/control group average tumor volume

## CC[C@H](C)C(C(CC(=O)N1CCC[C@H]1[C@H](OC)[C@@H](C)C(=O)NC(C)[C@@H](O)c1ccccc1)OC)N(C)C(=O)[C@@H](NC(=O)C(C(C)C)N(C)C(=O)OCc1ccc(NC(=O)[C@H](CCCNC(N)=O)NC(=O)C(NC(=O)CCCC(=O)NCCC(=O)N(C)CC(=O)N(C)CC(=O)N(C)CC(=O)N(C)CC(=O)N(C)CC(=O)N(C)CC(=O)N(C)CC(=O)N(C)CC(=O)N(C)CC(=O)N(C)CC(=O)N[C@H]2CSCCC(=O)N3CN4CN(C3)C(=O)CCSC[C@H](NC(=O)[C@@H](CC(=O)O)NC(=O)[C@H](Cc3cccc5ccccc35)NC(=O)[C@@H]3CCCN3C2=O)C(=O)N[C@@H](CCSC)C(=O)N[C@@H](CCCCNC(=N)N)C(=O)N[C@@H](CC(=O)O)C(=O)N[C@@H](Cc2c[nH]c3ccccc23)C(=O)N[C@@H](CO)C(=O)N[C@@H]([C@@H](C)O)C(=O)N2CCC[C@H]2C(=O)N2C[C@H](O)C[C@H]2C(=O)N[C@@H](Cc2c[nH]c3ccccc23)C(=O)N[C@H](C(N)=O)CSCCC4=O)C(C)C)cc1)C(C)C (stereo partly drawn) [BCY8245, MMAE-PABC-Cit-Val-Glutaryl-BCY8234] (I: [Sar][Sar][Sar][Sar][Sar][Sar][Sar][Sar][Sar][Sar]CP[1Nal][dD]CM[hArg]DWSTP[Hyp]WC-NH2 / II: [ξV][Cit][PABC][ξNMeV]V[X1][Dolaproine]-X2; linker I:11-I:15-I:25 via TATA; linker I:N-II:N via X3)
HCT116 xenograft; 3 mpk, biw, day 7 after the start of treatment
  Tumor volume trace over time: 213 ± 49 mm^3
HCT116 xenograft; 3 mpk, biw, day 9 after the start of treatment
  Tumor volume trace over time: 213 ± 48 mm^3
HCT116 xenograft; 3 mpk, biw, day 12 after the start of treatment
  Tumor volume trace over time: 206 ± 55 mm^3
HCT116 xenograft; 3 mpk, biw
  TGI: 94.9%
  Tumor volume: 197 ± 50 mm^3
  T/C: 25.6%
HCT116 xenograft; 3 mpk, biw, day 14 after the start of treatment
  Tumor volume trace over time: 197 ± 50 mm^3
HCT116 xenograft; 3 mpk, qw, day 0 after the start of treatment
  Tumor volume trace over time: 167 ± 11 mm^3
HCT116 xenograft; 3 mpk, qw, day 2 after the start of treatment
  Tumor volume trace over time: 209 ± 13 mm^3
HCT116 xenograft; 3 mpk, qw, day 4 after the start of treatment
  Tumor volume trace over time: 227 ± 17 mm^3
HCT116 xenograft; 3 mpk, qw, day 7 after the start of treatment
  Tumor volume trace over time: 269 ± 33 mm^3
HCT116 xenograft; 3 mpk, qw, day 9 after the start of treatment
  Tumor volume trace over time: 324 ± 39 mm^3
HCT116 xenograft; 3 mpk, qw, day 12 after the start of treatment
  Tumor volume trace over time: 348 ± 27 mm^3
HCT116 xenograft; 3 mpk, qw
  TGI: 57.1%
  Tumor volume: 425 ± 28 mm^3
  T/C: 55.2%
HCT116 xenograft; 3 mpk, qw, day 14 after the start of treatment
  Tumor volume trace over time: 425 ± 28 mm^3
HCT116 xenograft; 5 mpk, qw, day 0 after the start of treatment
  Tumor volume trace over time: 166 ± 35 mm^3
HCT116 xenograft; 5 mpk, qw, day 2 after the start of treatment
  Tumor volume trace over time: 201 ± 42 mm^3
HCT116 xenograft; 5 mpk, qw, day 4 after the start of treatment
  Tumor volume trace over time: 176 ± 15 mm^3
HCT116 xenograft; 5 mpk, qw, day 7 after the start of treatment
  Tumor volume trace over time: 183 ± 17 mm^3
HCT116 xenograft; 5 mpk, qw, day 9 after the start of treatment
  Tumor volume trace over time: 170 ± 16 mm^3
HCT116 xenograft; 5 mpk, qw, day 12 after the start of treatment
  Tumor volume trace over time: 125 ± 18 mm^3
HCT116 xenograft; 5 mpk, qw
  TGI: 105.2%
  Tumor volume: 134 ± 12 mm^3
  T/C: 17.4%
HCT116 xenograft; 5 mpk, qw, day 14 after the start of treatment
  Tumor volume trace over time: 134 ± 12 mm^3
HCT116 xenograft; mouse, in vivo
  tumor response (in words): tumor growth is restrained by BCY8245 but the tumor does not undergo regression
HT-1376 xenograft; 3 mg/kg biw
  TGI: 72.3%
  Tumor volume (TV): 407 mm^3
HT-1376 xenograft; 3 mg/kg qw
  TGI: 50.9%
  Tumor volume (TV): 603 mm^3
HT-1376 xenograft; 5 mg/kg qw
  TGI: 66.0%
  Tumor volume (TV): 465 mm^3
HT-1376 xenograft; 3 mpk, biw, iv, day 0 after the start of treatment
  Tumor volume trace over time: 154 mm^3
HT-1376 xenograft; 3 mpk, biw, iv, day 2 after the start of treatment
  Tumor volume trace over time: 248 mm^3
HT-1376 xenograft; 3 mpk, biw, iv, day 5 after the start of treatment
  Tumor volume trace over time: 203 mm^3
HT-1376 xenograft; 3 mpk, biw, iv, day 7 after the start of treatment
  Tumor volume trace over time: 273 mm^3
HT-1376 xenograft; 3 mpk, biw, iv, day 9 after the start of treatment
  Tumor volume trace over time: 356 mm^3
HT-1376 xenograft; 3 mpk, biw, iv, day 12 after the start of treatment
  Tumor volume trace over time: 391 mm^3
HT-1376 xenograft; 3 mpk, biw, iv
  TGI: 72.3%
  Tumor volume: 407 ± 53 mm^3
  T/C: 38.1%
HT-1376 xenograft; 3 mpk, biw, iv, day 14 after the start of treatment
  Tumor volume trace over time: 407 mm^3
HT-1376 xenograft; 3 mpk, qw, iv, day 0 after the start of treatment
  Tumor volume trace over time: 153 mm^3
HT-1376 xenograft; 3 mpk, qw, iv, day 2 after the start of treatment
  Tumor volume trace over time: 254 mm^3
HT-1376 xenograft; 3 mpk, qw, iv, day 5 after the start of treatment
  Tumor volume trace over time: 298 mm^3
HT-1376 xenograft; 3 mpk, qw, iv, day 7 after the start of treatment
  Tumor volume trace over time: 398 mm^3
HT-1376 xenograft; 3 mpk, qw, iv, day 9 after the start of treatment
  Tumor volume trace over time: 468 mm^3
HT-1376 xenograft; 3 mpk, qw, iv, day 12 after the start of treatment
  Tumor volume trace over time: 502 mm^3
HT-1376 xenograft; 3 mpk, qw, iv
  TGI: 50.9%
  Tumor volume: 603 ± 76 mm^3
  T/C: 56.4%
HT-1376 xenograft; 3 mpk, qw, iv, day 14 after the start of treatment
  Tumor volume trace over time: 603 mm^3
HT-1376 xenograft; 5 mpk, qw, iv, day 0 after the start of treatment
  Tumor volume trace over time: 153 mm^3
HT-1376 xenograft; 5 mpk, qw, iv, day 2 after the start of treatment
  Tumor volume trace over time: 237 mm^3
HT-1376 xenograft; 5 mpk, qw, iv, day 5 after the start of treatment
  Tumor volume trace over time: 228 mm^3
HT-1376 xenograft; 5 mpk, qw, iv, day 7 after the start of treatment
  Tumor volume trace over time: 317 mm^3
HT-1376 xenograft; 5 mpk, qw, iv, day 9 after the start of treatment
  Tumor volume trace over time: 394 mm^3
HT-1376 xenograft; 5 mpk, qw, iv, day 12 after the start of treatment
  Tumor volume trace over time: 438 mm^3
HT-1376 xenograft; 5 mpk, qw, iv
  TGI: 66.0%
  Tumor volume: 465 ± 33 mm^3
  T/C: 43.5%
HT-1376 xenograft; 5 mpk, qw, iv, day 14 after the start of treatment
  Tumor volume trace over time: 465 mm^3
